Laboratory results published in patent US12708640B2, “Synergistic nutritional compositions for treating vestibular associated neurodegenerative diseases” (CELAGENEX RESEARCH (INDIA) PVT. LTD., priority 2021, dated 2026).

Key:
Format in all cases: in vivo, Albino Wistar rat
[1] = Rat feed consumption in the sodium arsanilate vestibular dysfunction study; conditions: rats, group value
From the text: (§1) “Evaluation of test substance on sodium arsanilate induced vestibular dysfunction (Vertigo disorder) in wistar rats”.
(§2) • Test Species: Rat • Strain: Albino Wistar • Sex: Male/Female • Age: 6-8 Weeks • Body Weight: 180-200 g • Source: In house breed • Total No. of Animals: 42 Animals (7 groups of 6 animals each) • Feed: Normal chow diet (Purina lab diet 5L79 Rat and Mouse 18%) (PMI Nutrition International) Environmental Conditions:
(§3) All the animals were acclimatized for at least 5 days under controlled environmental condition. Total 42 animals were divided into seven groups consisting of 6 animals per group. Normal control (G1) group receiving vehicle, disease control (G2) group receiving sodium arsanilate injection only, standard group (G3) receiving reference standard (vertin) and treatment groups G4, G5, G6 & G7 were treated with the test substances. All the groups (except normal control group) were induced with sodium arsanilate via intratymphanic injection. All the treatment groups were administered daily for 7 consecutive days.
The feed consumption was calculated and reported on a daily basis throughout the study period.

[2] = tested on: sodium arsanilate induced vestibular dysfunction (Vertigo disorder) in wistar rats; test: Contact righting reflex; conditions: for Contact righting reflex (time), Average: group average of 6 animals
From the text: as §1
(§4) Vestibular dysfunction was induced in rats by intratympanic injection of sodium arsanilate an ototoxic compound. Sodium arsanilate is an arsenic derivative and intratympanic injection result was vestibular nerve degeneration in brain stem with concomitant loss of labyrinthine righting and reduced postural support with exaggerated head dorsiflexion.
as §3
The rats were placed in a syringe core tube in a supine position, following which the recovery time for position correction to be recorded. Normal rats turned over their body position in a few seconds.

[3] = tested on: sodium arsanilate induced vestibular dysfunction (Vertigo disorder) in wistar rats; test: Air righting reflex (air reflecting index); conditions: for Air Righting Reflex (% of Rats that successfully righted themselves within 5 s), Average: group average of 6 animals
From the text: as §1, §4, §3
A sponge was spread on a flat surface and the animals were placed in a supine position in the air 50 cm away above the sponge, following which the animal was dropped horizontally.
Four-legged smooth landing on the ground was considered as positive (normal animal), whereas the body or other regions landing first was considered vestibular dysfunction animals. The positive landing rate (%) of each rat in each group was recorded.

[4] = tested on: sodium arsanilate induced vestibular dysfunction (Vertigo disorder) in wistar rats; test: Open field test; conditions: for Ambulation Score [the number of open-field sections entered by the rat], Average / Defecation [the number of fecal boli deposited in the open-field], Average / Grooming [the number of grooming bouts exhibited by the rat], Average / Rearing Responses [the number of times the animal raised both forefeet off the floor and extended its body], Average: group average of 6 animals; for % Improvement in Ambulation score wrt. G2 / % Improvement in Defecation wrt. G2 / % Improvement in Grooming wrt. G2 / % Improvement in Rearing Responses wrt. G2: open field test, wrt. disease control G2
From the text: as §1, §4, §3
The open-field was circular, with a diameter of 90 cm, and enclosed by a wall 30 cm high. The floor and wall of the open-field was black and the floor was divided into 25 equal area sections by thin white lines. The floor was covered with a transparent plastic coating. The open-field apparatus was located inside a large wooden frame which surrounded on all sides by black curtains. The field was illuminated by two 60-W fluorescent lights located 100 cm above the floor.
At the start of each session the rats were placed in one of the peripheral sections of the open-field and the animal's behavior was monitored by an observer for 10 consecutive minutes. […] At the end of each session the rat was returned to its home cage and the floor of the open-field was cleaned and sponged over with a weak vinegar solution to remove any residual odors.

[5] = Rat body weight in the sodium arsanilate vestibular dysfunction study; conditions: rats, group value; for Body Weight, End of the treatment: after 7 days daily treatment
From the text: as §1, §2, §3
Individual body weights were recorded at receipt, on the day of randomization, on the first day of treatment before dosing and weekly once thereafter throughout the treatment period. The body weight changes for all the animals were calculated and reported along with the body weight data.

[6] = animal 1, recovery time for position correction
[7] = animal 2, recovery time for position correction
[8] = animal 3, recovery time for position correction
[9] = animal 4, recovery time for position correction
[10] = animal 5, recovery time for position correction
[11] = animal 6, recovery time for position correction
[12] = animal 1, end of 7-day treatment
[13] = animal 2, end of 7-day treatment
[14] = animal 3, end of 7-day treatment
[15] = animal 4, end of 7-day treatment
[16] = animal 5, end of 7-day treatment
[17] = animal 6, end of 7-day treatment

CC(=O)NC(CC(C)C)C(=O)O (racemic) [Group 4, N-Acetyl-DL-leucine enantiomerically enriched (EE) with L-leucine]
Feed Consumption, 0 day [1]: 16.00 gm
Feed Consumption, 7th day [1]: 16.67 gm
Contact righting reflex (time) [2, 6]: 27 s
Contact righting reflex (time) [2, 7]: 26 s
Contact righting reflex (time) [2, 8]: 25 s
Contact righting reflex (time) [2, 9]: 28 s
Contact righting reflex (time) [2, 10]: 27 s
Contact righting reflex (time) [2, 11]: 28 s
Contact righting reflex (time), Average [2]: 26.83 s
contact righting reflex, improvement (wrt. the Disease Control) [2]: up to 34%
Air Righting Reflex (% successfully righted within 5 s) ([3]; animal 1): 40%
Air Righting Reflex, Successful out of 5 [3, 12]: 2
Air Righting Reflex (% successfully righted within 5 s) ([3]; animal 2): 60%
Air Righting Reflex, Successful out of 5 [3, 13]: 3
Air Righting Reflex (% successfully righted within 5 s) ([3]; animal 3): 40%
Air Righting Reflex, Successful out of 5 [3, 14]: 2
Air Righting Reflex (% successfully righted within 5 s) ([3]; animal 4): 40%
Air Righting Reflex, Successful out of 5 [3, 15]: 2
Air Righting Reflex (% successfully righted within 5 s) ([3]; animal 5): 60%
Air Righting Reflex, Successful out of 5 [3, 16]: 3
Air Righting Reflex (% successfully righted within 5 s) ([3]; animal 6): 40%
Air Righting Reflex, Successful out of 5 [3, 17]: 2
Air Righting Reflex (% of Rats that successfully righted themselves within 5 s), Average [3]: 46.67%
Ambulation Score [the number of open-field sections entered by the rat] ([4]; animal 1): 210
Defecation [the number of fecal boli deposited in the open-field] ([4]; animal 1): 2
Grooming [the number of grooming bouts exhibited by the rat] ([4]; animal 1): 3
Rearing Responses [the number of times the animal raised both forefeet off the floor and extended its body] ([4]; animal 1): 4
Ambulation Score [the number of open-field sections entered by the rat] ([4]; animal 2): 200
Defecation [the number of fecal boli deposited in the open-field] ([4]; animal 2): 3
Grooming [the number of grooming bouts exhibited by the rat] ([4]; animal 2): 4
Rearing Responses [the number of times the animal raised both forefeet off the floor and extended its body] ([4]; animal 2): 3
Ambulation Score [the number of open-field sections entered by the rat] ([4]; animal 3): 220
Defecation [the number of fecal boli deposited in the open-field] ([4]; animal 3): 4
Grooming [the number of grooming bouts exhibited by the rat] ([4]; animal 3): 3
Rearing Responses [the number of times the animal raised both forefeet off the floor and extended its body] ([4]; animal 3): 5
Ambulation Score [the number of open-field sections entered by the rat] ([4]; animal 4): 220
Defecation [the number of fecal boli deposited in the open-field] ([4]; animal 4): 2
Grooming [the number of grooming bouts exhibited by the rat] ([4]; animal 4): 3
Rearing Responses [the number of times the animal raised both forefeet off the floor and extended its body] ([4]; animal 4): 4
Ambulation Score [the number of open-field sections entered by the rat] ([4]; animal 5): 210
Defecation [the number of fecal boli deposited in the open-field] ([4]; animal 5): 3
Grooming [the number of grooming bouts exhibited by the rat] ([4]; animal 5): 4
Rearing Responses [the number of times the animal raised both forefeet off the floor and extended its body] ([4]; animal 5): 6
Ambulation Score [the number of open-field sections entered by the rat] ([4]; animal 6): 220
Defecation [the number of fecal boli deposited in the open-field] ([4]; animal 6): 4
Grooming [the number of grooming bouts exhibited by the rat] ([4]; animal 6): 2
Rearing Responses [the number of times the animal raised both forefeet off the floor and extended its body] ([4]; animal 6): 4
Ambulation Score [the number of open-field sections entered by the rat], Average [4]: 213.33
Defecation [the number of fecal boli deposited in the open-field], Average [4]: 3.00
Grooming [the number of grooming bouts exhibited by the rat], Average [4]: 3.17
Rearing Responses [the number of times the animal raised both forefeet off the floor and extended its body], Average [4]: 4.33
% Improvement in Ambulation score wrt. G2 [4]: 15.23%
% Improvement in Defecation wrt. G2 [4]: 30.77%
% Improvement in Grooming wrt. G2 [4]: 59.57%
% Improvement in Rearing Responses wrt. G2 [4]: 40.62%
Body Weight, End of the treatment [5]: 190.77 gm
Body Weight, Initial [5]: 189.15 gm

CNCCc1ccccn1 [Group 3, reference compound]
Feed Consumption, 0 day [1]: 15.33 gm
Feed Consumption, 7th day [1]: 16.00 gm
Contact righting reflex (time) [2, 6]: 21 s
Contact righting reflex (time) [2, 7]: 26 s
Contact righting reflex (time) [2, 8]: 28 s
Contact righting reflex (time) [2, 9]: 23 s
Contact righting reflex (time) [2, 10]: 27 s
Contact righting reflex (time) [2, 11]: 26 s
Contact righting reflex (time), Average [2]: 25.17 s
contact righting reflex, improvement (wrt. the Disease Control) [2]: around 38%
Air Righting Reflex (% successfully righted within 5 s) ([3]; animal 1): 40%
Air Righting Reflex, Successful out of 5 [3, 12]: 2
Air Righting Reflex (% successfully righted within 5 s) ([3]; animal 2): 60%
Air Righting Reflex, Successful out of 5 [3, 13]: 3
Air Righting Reflex (% successfully righted within 5 s) ([3]; animal 3): 40%
Air Righting Reflex, Successful out of 5 [3, 14]: 2
Air Righting Reflex (% successfully righted within 5 s) ([3]; animal 4): 60%
Air Righting Reflex, Successful out of 5 [3, 15]: 3
Air Righting Reflex (% successfully righted within 5 s) ([3]; animal 5): 40%
Air Righting Reflex, Successful out of 5 [3, 16]: 2
Air Righting Reflex (% successfully righted within 5 s) ([3]; animal 6): 60%
Air Righting Reflex, Successful out of 5 [3, 17]: 3
Air Righting Reflex (% of Rats that successfully righted themselves within 5 s), Average [3]: 50.00%
Ambulation Score [the number of open-field sections entered by the rat] ([4]; animal 1): 200
Defecation [the number of fecal boli deposited in the open-field] ([4]; animal 1): 3
Grooming [the number of grooming bouts exhibited by the rat] ([4]; animal 1): 4
Rearing Responses [the number of times the animal raised both forefeet off the floor and extended its body] ([4]; animal 1): 5
Ambulation Score [the number of open-field sections entered by the rat] ([4]; animal 2): 210
Defecation [the number of fecal boli deposited in the open-field] ([4]; animal 2): 4
Grooming [the number of grooming bouts exhibited by the rat] ([4]; animal 2): 3
Rearing Responses [the number of times the animal raised both forefeet off the floor and extended its body] ([4]; animal 2): 4
Ambulation Score [the number of open-field sections entered by the rat] ([4]; animal 3): 215
Defecation [the number of fecal boli deposited in the open-field] ([4]; animal 3): 2
Grooming [the number of grooming bouts exhibited by the rat] ([4]; animal 3): 3
Rearing Responses [the number of times the animal raised both forefeet off the floor and extended its body] ([4]; animal 3): 6
Ambulation Score [the number of open-field sections entered by the rat] ([4]; animal 4): 230
Defecation [the number of fecal boli deposited in the open-field] ([4]; animal 4): 3
Grooming [the number of grooming bouts exhibited by the rat] ([4]; animal 4): 5
Rearing Responses [the number of times the animal raised both forefeet off the floor and extended its body] ([4]; animal 4): 4
Ambulation Score [the number of open-field sections entered by the rat] ([4]; animal 5): 220
Defecation [the number of fecal boli deposited in the open-field] ([4]; animal 5): 4
Grooming [the number of grooming bouts exhibited by the rat] ([4]; animal 5): 6
Rearing Responses [the number of times the animal raised both forefeet off the floor and extended its body] ([4]; animal 5): 5
Ambulation Score [the number of open-field sections entered by the rat] ([4]; animal 6): 225
Defecation [the number of fecal boli deposited in the open-field] ([4]; animal 6): 3
Grooming [the number of grooming bouts exhibited by the rat] ([4]; animal 6): 5
Rearing Responses [the number of times the animal raised both forefeet off the floor and extended its body] ([4]; animal 6): 4
Ambulation Score [the number of open-field sections entered by the rat], Average [4]: 216.67
Defecation [the number of fecal boli deposited in the open-field], Average [4]: 3.17
Grooming [the number of grooming bouts exhibited by the rat], Average [4]: 4.33
Rearing Responses [the number of times the animal raised both forefeet off the floor and extended its body], Average [4]: 4.67
% Improvement in Ambulation score wrt. G2 [4]: 13.91%
% Improvement in Defecation wrt. G2 [4]: 26.92%
% Improvement in Grooming wrt. G2 [4]: 44.68%
% Improvement in Rearing Responses wrt. G2 [4]: 43.75%
Body Weight, End of the treatment [5]: 188.10 gm
Body Weight, Initial [5]: 186.83 gm
